Results: ChEMBL document CHEMBL1139064, “Carbonic anhydrase activators: an activation study of the human mitochondrial isoforms VA and VB with amino acids and amines” (Bioorg Med Chem Lett, 2007)

How the values were obtained:
[1] = target: Carbonic anhydrase 5A, mitochondrial (Homo sapiens) (UniProt P35218); test: Activation of human recombinant carbonic anhydrase 5A by stopped-flow CO2 hydrase method
[2] = target: Carbonic anhydrase 5B, mitochondrial (Homo sapiens) (UniProt Q9Y2D0); test: Activation of human recombinant carbonic anhydrase 5B by stopped-flow CO2 hydrase method
Chain of Carbonic anhydrase 5B, mitochondrial (Homo sapiens) (Q9Y2D0 whole entry): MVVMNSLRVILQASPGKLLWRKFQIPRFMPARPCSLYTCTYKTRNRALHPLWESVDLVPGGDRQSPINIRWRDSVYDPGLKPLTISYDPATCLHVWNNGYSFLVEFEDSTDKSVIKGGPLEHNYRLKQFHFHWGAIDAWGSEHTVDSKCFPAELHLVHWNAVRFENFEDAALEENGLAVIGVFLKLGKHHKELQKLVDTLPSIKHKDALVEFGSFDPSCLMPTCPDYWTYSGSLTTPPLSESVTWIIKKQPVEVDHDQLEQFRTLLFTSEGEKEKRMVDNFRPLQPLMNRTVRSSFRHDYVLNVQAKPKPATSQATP

Chain of Carbonic anhydrase 5A, mitochondrial (Homo sapiens) (P35218 whole entry): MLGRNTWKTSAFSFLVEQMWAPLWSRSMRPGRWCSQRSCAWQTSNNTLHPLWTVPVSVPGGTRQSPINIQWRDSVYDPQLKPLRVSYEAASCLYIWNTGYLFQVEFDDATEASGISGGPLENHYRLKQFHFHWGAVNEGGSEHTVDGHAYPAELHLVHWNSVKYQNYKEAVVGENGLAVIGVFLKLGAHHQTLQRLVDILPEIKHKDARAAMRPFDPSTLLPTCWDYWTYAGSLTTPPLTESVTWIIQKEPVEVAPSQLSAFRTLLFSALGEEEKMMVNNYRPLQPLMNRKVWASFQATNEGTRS

For `N[C@H](Cc1c[nH]c2ccccc12)C(=O)O`, which KA [1] is on record?
Its KA is 1.24 µM.

What about the KA [2] of the same compound?
Its KA is 1.35 µM.

What does the source list for `NCc1ccccn1`?
KA [1]: 23.6 µM; KA [2]: 0.24 µM

`N[C@H](Cc1c[nH]cn1)C(=O)O` was tested. Which KA [1] did it give?
The KA was 0.12 µM.

And the KA [2]?
Its KA is 4.38 µM.

`NCCc1ccc(O)c(O)c1` was tested. Which KA [1] did it give?
The KA was 0.13 µM.

What about the KA [2] of the same compound?
The KA was 7.85 µM.

How did the KA [1] turn out when `NCCN1CCNCC1` was run?
The KA was 6.04 µM.

And the KA [2]?
Its KA is 0.91 µM.

`N[C@@H](Cc1c[nH]cn1)C(=O)O` was tested. Which KA [1] did it give?
Its KA is 1.34 µM.

What about the KA [2] of the same compound?
The KA was 0.97 µM.

Which results are given for `N[C@@H](Cc1ccc(O)cc1)C(=O)O`?
KA [1]: 2.45 µM; KA [2]: 0.044 µM

Which KA [1] does the source give for `Nc1ccc(C[C@H](N)C(=O)O)cc1` here?
The KA was 2.76 µM.

What about the KA [2] of the same compound?
Its KA is 2.17 µM.

With `NCCN1CCOCC1` as the compound, how does the KA [1] read?
The KA was 0.089 µM.

And the KA [2]?
The KA was 1.15 µM.

With `NCCc1ccccn1` as the compound, how does the KA [1] read?
Its KA is 7.62 µM.

What about the KA [2] of the same compound?
The KA was 0.094 µM.

What does the source list for `NCCc1c[nH]c2ccc(O)cc12`?
KA [1]: 6.33 µM; KA [2]: 0.11 µM

Which KA [1] does the source give for `N[C@@H](Cc1c[nH]c2ccccc12)C(=O)O` here?
Its KA is 1.13 µM.

What about the KA [2] of the same compound?
The KA was 0.89 µM.

How did the KA [1] turn out when `N[C@@H](Cc1ccc(O)c(O)c1)C(=O)O` was run?
Its KA is 0.036 µM.

And the KA [2]?
Its KA is 0.063 µM.

With `N[C@H](Cc1ccc(O)c(O)c1)C(=O)O` as the compound, how does the KA [1] read?
The KA was 4.59 µM.

What about the KA [2] of the same compound?
Its KA is 3.71 µM.

How did the KA [1] turn out when `NCCc1c[nH]cn1` was run?
The KA was 0.01 µM.

What about the KA [2] of the same compound?
Its KA is 3.52 µM.
